Target: T1, Lipase (Diutina rugosa, UniProt P20261)
T1 construct: gene LIP1
Assay: lipase activity assay, personal glucose meter readout, % inhibition at […]
Type: biochemical

T1 sequence (P20261 16-549): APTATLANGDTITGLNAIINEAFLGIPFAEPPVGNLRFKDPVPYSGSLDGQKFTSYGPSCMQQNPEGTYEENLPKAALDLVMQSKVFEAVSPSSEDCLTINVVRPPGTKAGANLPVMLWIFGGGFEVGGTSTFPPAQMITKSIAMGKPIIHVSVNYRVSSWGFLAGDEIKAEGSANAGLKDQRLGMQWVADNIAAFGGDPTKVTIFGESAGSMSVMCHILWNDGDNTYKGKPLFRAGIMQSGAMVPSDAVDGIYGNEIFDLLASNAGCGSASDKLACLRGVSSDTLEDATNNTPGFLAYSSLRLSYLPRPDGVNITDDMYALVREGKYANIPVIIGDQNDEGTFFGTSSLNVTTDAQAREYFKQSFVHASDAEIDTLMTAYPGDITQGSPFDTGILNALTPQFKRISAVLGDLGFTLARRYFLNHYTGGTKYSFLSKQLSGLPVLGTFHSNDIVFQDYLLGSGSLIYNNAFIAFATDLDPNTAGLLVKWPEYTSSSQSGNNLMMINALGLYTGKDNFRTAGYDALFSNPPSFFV

| Structure (SMILES) | inhibition at 2000 µM [%] |
| --- | --- |
| O=C(O[C@@H]1Cc2c(O)cc(O)cc2O[C@@H]1c1ccc(O)c(O)c1)c1cc(O)c(O)c(O)c1 [(−)-Epicatechin gallate] | 46.5 ± 2.2 |
| O=C(/C=C/c1ccc(O)c(O)c1)O[C@H](Cc1ccc(O)c(O)c1)C(=O)O [Rosmarinic acid] | 39.3 ± 3 |
| Oc1cc(O)c2c(c1)O[C@H](c1ccc(O)c(O)c1)[C@H](O)C2 [Epicatechin] | 42.8 ± 1.8 |
| Oc1cc(O)c2c(c1)O[C@H](c1cc(O)c(O)c(O)c1)[C@H](O)C2 [(−)-Epigallocatechin] | 47.2 ± 1.6 |
